Reference: BindingDB's records for patent US20250313563 (The Broad Institute, 2025)
pIC50: −log10 of the molar value. Where “and” joins values, the source holds several entries; their conditions need not be identical. Equal values may be shown once.

How the values were obtained:
[1] = biological target: Glycogen synthase kinase-3 alpha (Homo sapiens, UniProt P49840); assay: TR-FRET Assay
Outline: (§1)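 30 min preinc w/ cpd in assay buffer → kinase rxn → EDTA quench → add detection mix (40 nM SA-d2, 2 nM Tb-pSer641 Ab) → TR-FRET read.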

[2] = biological target: Glycogen synthase kinase-3 beta (Homo sapiens, UniProt P49841); assay: TR-FRET Assay
Outline: as §1

Glycogen synthase kinase-3 alpha, sequence (P49840 whole entry): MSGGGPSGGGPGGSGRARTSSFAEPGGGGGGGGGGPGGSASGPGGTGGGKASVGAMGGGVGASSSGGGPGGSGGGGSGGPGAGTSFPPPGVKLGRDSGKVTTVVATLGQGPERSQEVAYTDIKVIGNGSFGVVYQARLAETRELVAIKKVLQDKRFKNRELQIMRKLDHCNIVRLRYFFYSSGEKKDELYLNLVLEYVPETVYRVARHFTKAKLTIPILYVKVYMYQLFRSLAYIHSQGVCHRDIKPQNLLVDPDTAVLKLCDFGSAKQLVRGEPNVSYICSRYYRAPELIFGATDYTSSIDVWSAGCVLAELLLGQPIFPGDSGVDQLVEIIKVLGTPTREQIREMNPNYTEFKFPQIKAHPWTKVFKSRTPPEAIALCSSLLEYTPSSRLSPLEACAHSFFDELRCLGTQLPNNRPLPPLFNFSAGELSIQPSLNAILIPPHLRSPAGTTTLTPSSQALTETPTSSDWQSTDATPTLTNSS
Glycogen synthase kinase-3 beta, sequence (P49841 whole entry): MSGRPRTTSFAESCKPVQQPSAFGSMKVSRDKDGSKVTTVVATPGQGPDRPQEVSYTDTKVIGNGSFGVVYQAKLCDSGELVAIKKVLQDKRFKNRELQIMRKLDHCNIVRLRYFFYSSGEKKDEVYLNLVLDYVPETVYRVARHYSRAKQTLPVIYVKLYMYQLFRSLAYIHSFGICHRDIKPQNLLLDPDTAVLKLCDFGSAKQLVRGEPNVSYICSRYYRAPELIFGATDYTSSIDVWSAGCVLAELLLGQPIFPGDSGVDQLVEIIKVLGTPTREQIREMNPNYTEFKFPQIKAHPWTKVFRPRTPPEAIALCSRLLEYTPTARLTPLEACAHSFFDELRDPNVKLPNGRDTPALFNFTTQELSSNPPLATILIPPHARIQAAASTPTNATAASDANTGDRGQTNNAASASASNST

| Structure (SMILES) | pIC50 [1] | pIC50 [2] |
| --- | --- | --- |
| CCC1(c2cccc(S(=O)(=O)C3CCOC3)c2)C2=CN=NC2NC2=C1C(=O)CC(C)(C)C2 (stereo not drawn) [US20250313563, Compound 944018] | > 7.00 | > 7.00 |
| CC[C@@]1(c2cccc(-c3ccnc(C)c3)c2)C2=CN=NC2NC2=C1C(=O)C[C@@]1(CCOC1)C2 (stereo partly drawn) [US20250313563, Compound 947411] | < 5.30 | < 5.30 |
| CCC1(c2cccc(S(=O)(=O)C(C)C)c2)C2=C(CC(C)(C)NC2=O)NC2N=NC(C)=C21 (stereo not drawn) [US20250313563, Compound 947396] | > 7.00 | > 7.00 |
| CCC1(c2cccc(-c3cnnn3C(C)C)c2)C2=CN=NC2NC2=C1C(=O)CC(C)(C)C2 (stereo not drawn) [US20250313563, Compound 947397] | > 7.00 | > 7.00 |
| CC1CC(C(=O)N2CC3(C2)CC2(CO3)C3=C(N=NC3)NC3=C2C(=O)CC(C)(C)C3)C1 (stereo not drawn) [US20250313563, Compound 947266] | > 7.00 | > 7.00 |
| CCC1(c2cccc(S(=O)(=O)c3ccccc3)c2)C2=CN=NC2NC2=C1C(=O)CC(C)(C)C2 (stereo not drawn) [US20250313563, Compound 913123] | > 7.00 | > 7.00 and 6.00 to 7.00 |
| CC[C@@]1(c2cccc(-c3ccncc3F)c2)C2=C(CC(C)(C)CC2=O)NC2N=NC(C)=C21 (stereo partly drawn) [US20250313563, Compound 913017] | 6.00 to 7.00 | 6.00 to 7.00 |
| CC1(C)CC(=O)C2=C(C1)NC1N=NC=C1[C@@]21CCCc2c(-c3ccncc3)cccc21 (stereo partly drawn) [US20250313563, Compound 945547] | 5.30 to 6.00 | < 5.30 |
| CC[C@@]1(c2cccc(-c3ccncc3C)c2)C2=C(CC(C)(C)NC2=O)NC2N=NC(C)=C21 (stereo partly drawn) [US20250313563, Compound 947414] | > 7.00 and 6.00 to 7.00 | > 7.00 and 5.30 to 6.00 |
| O=C1C2=C(NC3N=NC=C3C23CCOCC3)C2CCC1C2 (stereo not drawn) [US20250313563, Compound 901464] | 6.00 to 7.00 | 6.00 to 7.00 |
| CC[C@@]1(c2ccccc2)C2=CN=NC2NC2=C1C(=O)C[C@]1(CCOC1)C2 (stereo partly drawn) [US20250313563, Compound 816881] | 6.00 to 7.00 | 5.30 to 6.00 |
| Cn1ccc(CN2CC3(C2)C2=C(N=NC2)NC2=C3C(=O)CC(C)(C)C2)n1 [US20250313563, Compound 932652] | < 5.30 | < 5.30 |
| CC[C@]1(c2cccc(-c3ccnc4c3CCCC4)c2)C2=CN=NC2NC2=C1C(=O)CC(C)(C)C2 (stereo partly drawn) [US20250313563, Compound 944036] | 5.30 to 6.00 | < 5.30 |
| CC1(C)CC(=O)C2=C(C1)NC1=C(CN=N1)C21CN(Cc2cnc3ccccn23)C1 [US20250313563, Compound 932654] | < 5.30 | < 5.30 |
| CCC1(c2ccccc2)C2=C(CC(C)(C)CC2=O)NC2N=NC(C(F)(F)F)=C21 (stereo not drawn) [US20250313563, Compound 792343] | > 7.00 | > 7.00 |
| CC[C@]1(c2cccc(N(C)c3cncnc3)c2)C2=CN=NC2NC2=C1C(=O)CC(C)(C)C2 (stereo partly drawn) [US20250313563, Compound 915400] | > 7.00 | > 7.00 |
| CCc1cc(N(C)c2cccc(C3(CC)C4=CN=NC4NC4=C3C(=O)CC(C)(C)C4)c2)ccn1 (stereo not drawn) [US20250313563, Compound 945600] | 6.00 to 7.00 | 5.30 to 6.00 |
| CC[C@@]1(c2cccc(-c3cnn(C)c3)c2)C2=C(CC(C)(C)NC2=O)NC2N=NC(C)=C21 (stereo partly drawn) [US20250313563, Compound 945614] | 6.00 to 7.00 | 6.00 to 7.00 and 5.30 to 6.00 |
| O=C1CC(C(F)(F)F)CC2=C1C1(CCOCC1)C1=C(N=NC1)N2 (stereo not drawn) [US20250313563, Compound 889572] | 6.00 to 7.00 | 6.00 to 7.00 |
| CC1(C)CC(=O)C2=C(C1)NC1=C(CN=N1)C21CN(CC2CCCC2)C1 [US20250313563, Compound 943914] | < 5.30 | < 5.30 |
| CCC1(c2ccccc2)C2=C(N=NC2)NC2=C1C(=O)CCC2 (stereo not drawn) [US20250313563, Compound 789497] | 5.30 to 6.00 | < 5.30 |
| CCC1(c2cccc(N(C)c3ccnn3C)c2)C2=CN=NC2NC2=C1C(=O)CC(C)(C)C2 (stereo not drawn) [US20250313563, Compound 889604] | 6.00 to 7.00 | 5.30 to 6.00 |
| COc1ccc(S(=O)(=O)N2CCC3(CC2)C2=C(N=NC2)NC2=C3C(=O)CC(C)(C)C2)c(F)c1 [US20250313563, Compound 947255] | > 7.00 | > 7.00 and 6.00 to 7.00 |

Results, then the compound that gave them:

| pIC50 [1] | pIC50 [2] | Structure (SMILES) |
| --- | --- | --- |
| > 7.00 | 6.00 to 7.00 | CC[C@]1(c2cccc(C3=C4CC=C(OC)C=C4N=CC3)c2)C2=CN=NC2NC2=C1C(=O)NC(C)(C)C2 (stereo partly drawn) [US20250313563, Compound 948661] |
| > 7.00 and 6.00 to 7.00 | > 7.00 and 5.30 to 6.00 | CC[C@@]1(c2cccc(-c3ccncc3F)c2)C2=C(CC(C)(C)NC2=O)NC2N=NC(Cl)=C21 (stereo partly drawn) [US20250313563, Compound 949757] |
| > 7.00 | 6.00 to 7.00 | Cn1ccc(S(=O)(=O)N2CCC3(CC2)C2=C(N=NC2)NC2=C3C(=O)CC(C)(C)[C@@H]2F)n1 [US20250313563, Compound 951708] |
| 6.00 to 7.00 | 5.30 to 6.00 | CC[C@@]1(c2cccc(-c3cc(C(C)C)nn3C)c2)C2=CN=NC2NC2=C1C(=O)NC(C)(C)C2 (stereo partly drawn) [US20250313563, Compound 951842] |
| > 7.00 | > 7.00 | CC1(C)CC(=O)C2=C(C1)NC1=C(CN=N1)C21CCN(S(=O)(=O)c2cnn(CCF)c2)CC1 [US20250313563, Compound 947903] |
| 6.00 to 7.00 | 5.30 to 6.00 | CC[C@]1(c2cccc(-c3cnn(C)c3)c2)C2=CN=NC2NC2=C1C(=O)CC(C)(C)[C@@H]2F (stereo partly drawn) [US20250313563, Compound 957504] |
| 5.30 to 6.00 | < 5.30 | CC[C@]1(c2cccc(-c3ccnc(C)c3)c2)C2=CN=NC2NC2=C1C(=O)N[C@]1(CCCOC1)C2 (stereo partly drawn) [US20250313563, Compound 948146] |
| < 5.30 | < 5.30 | CC[C@]1(c2cccc(-c3cnn(CCN4CCCC4)c3)c2)C2=CN=NC2NC2=C1C(=O)NC(C)(C)C2 (stereo partly drawn) [US20250313563, Compound 949510] |
| > 7.00 | > 7.00 | CCC1(c2cccc(-c3cn(C)nc3C)c2)C2=CN=NC2NC2=C1C(=O)N(C)C(C)(C)C2 (stereo not drawn) [US20250313563, Compound 948304] |
| > 7.00 | > 7.00 | CC[C@@]1(c2cccc(-c3ccncc3C)c2)C2=CN=NC2NC2=C1C(=O)NC(C)(C)C2 (stereo partly drawn) [US20250313563, Compound 947574] |
| < 5.30 | < 5.30 | CC[C@@]1(c2cccc(C(F)(F)F)c2)C2=CN=NC2NC2=C1C(=O)N(c1ccsc1)CC2 (stereo partly drawn) [US20250313563, Compound 952636] |
| > 7.00 | 6.00 to 7.00 | CC[C@]1(c2cccc(C(F)(F)F)c2)C2=CN=NC2NC2=C1C(=O)N(c1ccc(F)cc1)CC2 (stereo partly drawn) [US20250313563, Compound 948224] |
| 5.30 to 6.00 | < 5.30 | CC[C@]1(c2cccc(-c3ccnc4cnccc34)c2)C2=CN=NC2NC2=C1C(=O)NC(C)(C)C2 (stereo partly drawn) [US20250313563, Compound 948819] |
| < 5.30 | < 5.30 | CC[C@]1(c2cccc(-c3cnn(-c4ccccn4)c3)c2)C2=CN=NC2NC2=C1C(=O)NC(C)(C)C2 (stereo partly drawn) [US20250313563, Compound 949264] |
| > 7.00 | 6.00 to 7.00 | CC[C@@]1(c2cccc(-c3ccnc(C)c3)c2)C2=C(CC(C)(C)NC2=O)NC2N=NC(F)=C21 (stereo partly drawn) [US20250313563, Compound 949012] |
| > 7.00 | 6.00 to 7.00 | CCC1(c2cccc(C(F)(F)F)c2)C2=CN=NC2NC2=C1C(=O)N(c1cncnc1)CC2 (stereo not drawn) [US20250313563, Compound 948238] |
